Measurements reported in patent publication US20090018148A1, “Xanthine Derivatives, Processes For Preparing Them And Their Uses” (UCB PHARMA, S.A., priority 2005, published 2009).

| melting point | Compound |
| --- | --- |
| 175.2 °C | CCOC(=O)C(CC)Sc1nc2c(c(=O)[nH]c(=O)n2C)n1Cc1ccc(S(N)(=O)=O)cc1 (racemic) [Compound 15, ethyl 2-({7-[4-(aminosulfonyl)benzyl]-3-methyl-2,6-dioxo-2,3,6,7-tetrahydro-1H-purin-8-yl}thio)butanoate] |
| 90.1 °C | CCOC(=O)C(CC)Sc1nc2[nH]c(=O)[nH]c(=O)c2n1Cc1cccc(Br)c1 (racemic) [Compound 4, ethyl 2-{[7-(3-bromobenzyl)-2,6-dioxo-2,3,6,7-tetrahydro-1H-purin-8-yl]thio}butanoate] |
| 132 °C | CCOC(=O)C(CC)Sc1nc2c(c(=O)[nH]c(=O)n2C)n1CC(C)C (racemic) [Compound 31, ethyl 2-[(7-isobutyl-3-methyl-2,6-dioxo-2,3,6,7-tetrahydro-1H-purin-8-yl)thio]butanoate] |
| 107 °C | CCOC(=O)C(CC)Sc1nc2c(c(=O)[nH]c(=O)n2C)n1Cc1cccc(N)c1 (racemic) [Compound 14, ethyl 2-{[7-(3-aminobenzyl)-3-methyl-2,6-dioxo-2,3,6,7-tetrahydro-1H-purin-8-yl]thio}butanoate] |
| 104 °C | CCCCn1c(SC(CC)C(=O)OCC)nc2c1c(=O)[nH]c(=O)n2C (racemic) [Compound 22, ethyl 2-[(7-butyl-3-methyl-2,6-dioxo-2,3,6,7-tetrahydro-1H-purin-8-yl)thio]butanoate] |
| 115 °C | CCOC(=O)C(CC)Sc1nc2c(c(=O)[nH]c(=O)n2C)n1Cc1cccc(OC)c1 (racemic) [Compound 12, ethyl 2-{[7-(3-methoxybenzyl)-3-methyl-2,6-dioxo-2,3,6,7-tetrahydro-1H-purin-8-yl]thio}butanoate] |
| 72 °C | CCOC(=O)C(CC)Sc1nc2c(c(=O)n(C)c(=O)n2C)n1Cc1ccccc1 (racemic) [Compound 1, ethyl 2-[(7-benzyl-1,3-dimethyl-2,6-dioxo-2,3,6,7-tetrahydro-1H-purin-8-yl)thio]butanoate] |
| 167 °C | CCC(CC)Sc1nc2c(c(=O)[nH]c(=O)n2C)n1Cc1cccc(Br)c1 [Compound 29, 7-(3-bromobenzyl)-8-[(1-ethylpropyl)thio]-3-methyl-3,7-dihydro-1H-purine-2,6-dione] |
| 58 °C | CCOC(=O)C(CC)Sc1nc2c(c(=O)n(CCOC)c(=O)n2C)n1Cc1cccc(Br)c1 (racemic) [Compound 3, ethyl 2-{[7-(3-bromobenzyl)-1-(2-methoxyethyl)-3-methyl-2,6-dioxo-2,3,6,7-tetrahydro-1H-purin-8-yl]thio}butanoate] |
| 208 °C | CCOC(=O)C(CC)Sc1nc2c(c(=O)[nH]c(=O)n2C)n1Cc1c(C)noc1C (racemic) [Compound 20, ethyl 2-({7-[(3,5-dimethylisoxazol-4-yl)methyl]-3-methyl-2,6-dioxo-2,3,6,7-tetrahydro-1H-purin-8-yl}thio)butanoate] |
| 87 °C | CCCCCCn1c(SC(CC)C(=O)OCC)nc2c1c(=O)[nH]c(=O)n2C (racemic) [Compound 25, ethyl 2-[(7-hexyl-3-methyl-2,6-dioxo-2,3,6,7-tetrahydro-1H-purin-8-yl)thio]butanoate] |
| 253 °C | CCCCn1c(SC(CC)C(N)=O)nc2c1c(=O)[nH]c(=O)n2C (racemic) [Compound 28, 2-[(7-butyl-3-methyl-2,6-dioxo-2,3,6,7-tetrahydro-1H-purin-8-yl)thio]butanamide] |
| 76 °C | CCOC(=O)C(CC)Sc1nc2c(c(=O)n(C)c(=O)n2C)n1Cc1cccc(Br)c1 (racemic) [Compound 5, ethyl 2-{[7-(3-bromobenzyl)-1,3-dimethyl-2,6-dioxo-2,3,6,7-tetrahydro-1H-purin-8-yl]thio}butanoate] |
| 244.15 °C | CCC(Sc1nc2c(c(=O)[nH]c(=O)n2C)n1Cc1cccc(Br)c1)C(N)=O (racemic) [Compound 27, 2-{[7-(3-bromobenzyl)-3-methyl-2,6-dioxo-2,3,6,7-tetrahydro-1H-purin-8-yl]thio}butanamide] |
| 97 °C | C#CCn1c(=O)c2c(nc(SC(CC)C(=O)OCC)n2Cc2cccc(Br)c2)n(C)c1=O (racemic) [Compound 11, ethyl 2-{[7-(3-bromobenzyl)-3-methyl-2,6-dioxo-1-(2-propynyl)-2,3,6,7-tetrahydro-1H-purin-8-yl]thio}butanoate] |
| 172 °C | CCOC(=O)C(CC)Sc1nc2c(c(=O)[nH]c(=O)n2C)n1Cc1ccc([N+](=O)[O-])o1 (racemic) [Compound 21, ethyl 2-({3-methyl-7-[(5-nitro-2-furyl)methyl]-2,6-dioxo-2,3,6,7-tetrahydro-1H-purin-8-yl}thio)butanoate] |
| 101 °C | CCOC(=O)C(CC)Sc1nc2c(c(=O)n(C)c(=O)n2C)n1Cc1ccccc1Br (racemic) [Compound 6, ethyl 2-{[7-(2-bromobenzyl)-1,3-dimethyl-2,6-dioxo-2,3,6,7-tetrahydro-1H-purin-8-yl]thio}butanoate] |
| 147 °C | CCOC(=O)C(CC)Sc1nc2c(c(=O)[nH]c(=O)n2C)n1Cc1cccc([N+](=O)[O-])c1 (racemic) [Compound 13, ethyl 2-{[3-methyl-7-(3-nitrobenzyl)-2,6-dioxo-2,3,6,7-tetrahydro-1H-purin-8-yl]thio}butanoate] |
| 84 °C | CCOC(=O)C(CC)Sc1nc2c(c(=O)n(CC#N)c(=O)n2C)n1Cc1cccc(Br)c1 (racemic) [Compound 7, ethyl 2-{[7-(3-bromobenzyl)-1-(cyanomethyl)-3-methyl-2,6-dioxo-2,3,6,7-tetrahydro-1H-purin-8-yl]thio}butanoate] |
